In BindingDB's records for doi:10.1016/j.bmcl.2013.11.055 (Shanghai Hengrui Pharmaceutical, 2013) one finds IC50 data, which are given here for 16 compounds.

Assay [1] is described as follows: Antagonist activity at P2Y12 receptor in rat platelet-rich plasma assessed as inhibition of ADP-induced platelet aggregation incubated for 5 mins prior to ADP-challenge by light transmission-based assay.
The nature of assay [2]: Antagonist activity at P2Y12 receptor in human platelet-rich plasma assessed as inhibition of ADP-induced platelet aggregation incubated for 5 mins prior to ADP-challenge by light transmission-based assay.

In the case of `CCCSc1nc(N[C@@H]2C[C@H]2c2ccc(F)c(F)c2)c2nnn([C@H]3[C@H](O)[C@H](O)[C@@H](O)[C@H]3F)c2n1`, the IC50 in assay [1] turned out to be 290 nM; in assay [2], 220 nM.

For the compound `CCCSc1nc(N[C@@H]2C[C@H]2c2ccc(F)c(F)c2)c2nnn([C@@H]3C[C@H](OCC(F)CO)[C@@H](O)[C@H]3O)c2n1` (stereo not given in full), the values for the IC50 in assay [1] and in assay [2] were 410 nM and 4820 nM, respectively.

For the compound `CCCSc1nc(N[C@@H]2C[C@H]2c2ccc(F)c(F)c2)c2nnn([C@H]3[C@H](O)[C@H](O)[C@@H](OCCO)[C@@H]3O)c2n1`, the half-maximal inhibitory concentration (IC50) came out at 1380 nM in assay [1] and 11300 nM in assay [2].

With `CCCSc1nc(N[C@@H]2C[C@H]2c2ccc(F)c(F)c2)c2nnn([C@@H]3C[C@H](OCCO)[C@@H](O)[C@H]3O)c2n1` [AR-C126532XX], the IC50 in assay [2] amounted to 500 nM.

In the case of `CCCSc1nc(N[C@@H]2C[C@H]2c2ccc(F)c(F)c2)c2nnn([C@H]3[C@H](O)[C@H](O)[C@@H](O)[C@@H]3F)c2n1`, the 50% inhibitory concentration (IC50) in assay [2] was found to be 1670 nM.

For `CCCSc1nc(N[C@@H]2C[C@H]2c2ccc(F)c(F)c2)c2nnn([C@@H]3C[C@H](OCC(F)F)[C@@H](O)[C@H]3O)c2n1`, the IC50 in assay [1] came to 31300 nM.

On to `CCCSc1nc(N[C@@H]2C[C@H]2c2ccc(F)c(F)c2)c2nnn([C@H]3[C@H](O)[C@H](O)[C@@H](OCCO)[C@@H]3F)c2n1`, for which the IC50 in assay [2] stood at 6350 nM.

With `CCCSc1nc(N[C@@H]2C[C@H]2c2cccnc2)c2nnn([C@@H]3C[C@H](OCCO)[C@@H](O)[C@H]3O)c2n1`, the IC50 in assay [1] was 1520 nM.

For `CCCSc1nc(N[C@@H]2C[C@H]2c2ccc(F)c(F)c2)c2nnn([C@@H]3C=C[C@@H](O)[C@H]3O)c2n1`, the IC50 in assay [1] is 850 nM; in assay [2] it was 1970 nM.

For the compound `CCCSc1nc(N[C@@H]2C[C@H]2c2ccc(F)c(F)c2)c2nnn(C3[C@H](O)[C@H](O)[C@@H](O)[C@H]3O)c2n1` (stereo not given in full), the IC50 in assay [1] stood at 1250 nM; in assay [2], 1730 nM.

As for `CCCSc1nc(N[C@@H]2C[C@H]2c2ccc(Cl)s2)c2nnn([C@@H]3C[C@H](OCCO)[C@@H](O)[C@H]3O)c2n1`, the IC50 was found to be 160 nM in assay [1] and 280 nM in assay [2].

Take `CCCSc1nc(N[C@@H]2C[C@H]2c2ccc(F)c(F)c2)c2nnn([C@H]3[C@H](O)[C@H](O)[C@@H](O)[C@@H]3O)c2n1`: the IC50 turned out to be 650 nM in assay [1] and 16300 nM in assay [2].

As for `CCCSc1nc(N[C@@H]2C[C@H]2c2ccc(F)c(F)c2)c2nnn([C@H]3[C@H](O)[C@H](O)[C@@H](OCCO)[C@H]3F)c2n1`, the figures for the IC50 in assay [1] and in assay [2] were 480 nM and 350 nM, respectively.

`CCCSc1nc(N[C@@H]2C[C@H]2c2scnc2C)c2nnn([C@@H]3C[C@H](OCCO)[C@@H](O)[C@H]3O)c2n1`: the IC50 in assay [1] was 1810 nM.

As for `CCCSc1nc(N[C@@H]2C[C@H]2c2ccc(F)c(F)c2)c2nnn([C@@H]3C[C@H](F)[C@@H](O)[C@H]3O)c2n1`, the IC50 turned out to be 110 nM in assay [1] and 330 nM in assay [2].

As to `CCCSc1nc(N[C@@H]2C[C@H]2c2ccc(F)c(F)c2)c2nnn([C@@H]3C[C@H](OCC(O)CO)[C@@H](O)[C@H]3O)c2n1` (stereo not given in full), in assay [1], the IC50 was 148 nM.
